# Source: article PMC9889419 (Pharmacological Reports, 2022)
# Where a name gives a salt, the structure may show the parent alone. Read-outs that look alike come from different tables or passages of the source.
# Tests used:
# CYP2B6 = target: T1, CYP2B6 (Homo sapiens, UniProt P20813); assay: Human cytochrome P450 inhibition (human liver microsomes); assay type: in vitro ADME
# T1 construct: tissue celsis M008085JTA; host or cells: human liver microsomes
# Method: (§1) The selective reactions utilized for each enzyme were as follows: CYP1A2—phenacetin deethylation, CYP2A6—coumarin 7-hydroxylation, CYP2B6—7-ethoxy-4-trifluoromethyl coumarin O-deethylation, CYP2C9—diclofenac 4-hydroxylation, CYP2C19—S-mephenytoin 4-hydroxylation, CYP2D6—bufuralol 1’-hydroxylation, CYP2E1—chlorzoxazone 6-hydroxylation, CYP3A4—testosterone 6β-hydroxylation. For inhibitory evaluation, human liver microsomes and the tested compound (added in methanol as a solvent) were incubated under aerobic conditions with cytochrome P450 isozyme-selective substrates and excess NADPH at 37 °C. Incubations were for time periods over which the reaction in the absence of the compound, were determined to be linear, and proportional to the protein concentration. The human liver microsomes used were selected from the bank of those commercially available to be especially rich in the amount of the cytochrome P450 isozyme under investigation. However, it is important to note that the microsomes contained all the other isozymes in addition, and if reaction/substrate was less than specific, the other isozymes may have contributed to a minor extent to the enzyme activity determined. Following incubation, the reaction was terminated, an internal standard added, the metabolic products extracted and separated by reverse phase HPLC. Each assay was performed in duplicate, and the mean value calculated. The HPLC elutions were monitored by UV absorbance for all CYP reactions except those for CYP2A6, CYP2B6 and CYP2D6 where fluorescence monitoring was employed. Quantification was by comparison with authentic metabolites.
# CYP3A4 = target: T2, CYP3A4 (Homo sapiens, UniProt P08684); assay: as above; assay type: in vitro ADME
# T2 construct: The human liver microsomes used were selected from the bank of those commercially available; from tissue; host or cells: human liver microsomes
# Method: as §1
# CYP2A6 = target: T3, CYP2A6 (Homo sapiens, UniProt P11509); assay: as above; assay type: in vitro ADME
# T3 construct: tissue celsis X008064-LSL; host or cells: human liver microsomes
# T3 sequence (P11509 1-494): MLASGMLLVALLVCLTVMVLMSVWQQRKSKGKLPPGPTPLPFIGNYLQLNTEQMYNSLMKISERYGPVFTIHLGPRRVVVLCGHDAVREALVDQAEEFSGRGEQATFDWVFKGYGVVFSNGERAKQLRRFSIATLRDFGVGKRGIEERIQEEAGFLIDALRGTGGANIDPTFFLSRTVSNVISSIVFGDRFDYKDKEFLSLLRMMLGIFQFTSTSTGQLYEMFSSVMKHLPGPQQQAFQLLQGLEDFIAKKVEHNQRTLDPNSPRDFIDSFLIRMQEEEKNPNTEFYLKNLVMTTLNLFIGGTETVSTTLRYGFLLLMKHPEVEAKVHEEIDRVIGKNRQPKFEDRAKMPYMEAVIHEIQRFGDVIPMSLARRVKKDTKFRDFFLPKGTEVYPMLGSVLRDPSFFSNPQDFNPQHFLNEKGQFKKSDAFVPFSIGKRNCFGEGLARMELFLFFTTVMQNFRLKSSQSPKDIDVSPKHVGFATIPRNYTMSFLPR
# Method: as §1
# CYP1A2 = target: T4, CYP1A2 (Homo sapiens, UniProt P05177); assay: as above; assay type: in vitro ADME
# T4 construct: tissue celsis F008085-CST; host or cells: human liver microsomes
# T4 sequence (P05177 1-516): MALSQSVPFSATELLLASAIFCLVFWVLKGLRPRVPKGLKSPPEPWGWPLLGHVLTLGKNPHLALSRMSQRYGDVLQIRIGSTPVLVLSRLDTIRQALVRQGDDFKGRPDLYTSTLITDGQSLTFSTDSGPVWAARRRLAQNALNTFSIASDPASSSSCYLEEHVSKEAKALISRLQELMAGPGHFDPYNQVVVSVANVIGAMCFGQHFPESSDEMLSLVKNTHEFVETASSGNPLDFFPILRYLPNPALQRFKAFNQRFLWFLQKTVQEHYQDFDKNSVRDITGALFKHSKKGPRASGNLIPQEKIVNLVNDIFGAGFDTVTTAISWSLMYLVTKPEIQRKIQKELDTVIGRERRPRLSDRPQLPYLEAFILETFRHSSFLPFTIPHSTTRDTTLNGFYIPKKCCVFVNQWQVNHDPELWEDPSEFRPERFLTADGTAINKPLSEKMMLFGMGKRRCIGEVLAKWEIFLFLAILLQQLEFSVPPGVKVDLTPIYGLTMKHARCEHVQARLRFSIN
# Method: as §1
# CYP2C19 = target: T5, CYP2C19 (Homo sapiens, UniProt P33261); assay: as above; assay type: in vitro ADME
# T5 construct: tissue Puracyp #011; host or cells: human liver microsomes
# Method: as §1
# Tissue distribution = assay type: in vivo, rats; settings: for t0.5λz / Cmax / MRT / Tmax / Kp / k el: 5 mg/kg iv; for Kp: read-out: Kp (tissue-to-plasma AUC ratio); for k el: read-out: λz (converted)
# Method: Pharmacokinetic study design. Male Wistar rats (250–300 g) bred in-house from progenitors obtained from Charles River Laboratories (Sulzfed, Germany) were used in this study. […] Moreover, this compound dissolved in the same solvent was administered orally (po) by oral gavage at two doses (50 and 100 mg/kg) (n = 4). Blood samples were collected from the catheter at various time points up to 5 h. […] The animals were anaesthetized (50/7.5 mg/kg ketamine/xylazine, ip) and sacrificed by decapitation at 5, 15, 30, 60, 120, 180, and 300 min after compound administration (n = 4 per time point). Blood was collected into heparinized tubes and organs such as liver, brain, lungs, kidneys, and heart were harvested. The blood samples were centrifuged at 4000 rpm for 10 min (EBA 12R, Hettich, Germany). Plasma and organs were stored at − 80 °C until analysis.
# Before analysis, tissue samples were homogenized in phosphate-buffered saline, pH 7.4 (1:4, w/v) with a tissue homogenizer (TH220; Omni International, Inc., Warrenton, VA, USA). Plasma (100 μL) or homogenate samples (500 μL) were mixed with an internal standard (IS) solution (R-( +)-propranolol, 4 μg/mL in methanol). Then, 20 μL of sodium carbonate (0.125 M) was added to each tube and the samples were extracted with 3 mL of diethyl ether by vortexing for 1 min. After centrifugation (3000 rpm, 15 min), the organic phase was transferred to a new tube and evaporated to dryness under a gentle stream nitrogen at 37 °C in a water bath. The dry residue was reconstituted in 100 μL of acetonitrile. Subsequently, 50 μL of 0.2 M borate buffer (pH = 7.0) and 50 μL of 6 mM FMOC-Cl solution in acetonitrile were added. […] The reaction was stopped by the addition of 0.1 M solution of glycine in water (30 μL) and vortexing for 1 min. The reaction mixture was transferred directly into the autosampler vials. The chromatographic system (Merck-HITACHI, Japan) consisted of an L-2485 spectrofluorimetric detector operating at the excitation and emission wavelengths of 267 and 316 nm, respectively, an L-2130 pump, an L-2350 column oven, and an L-2200 autosampler. The EZChrom Elite Client/Server version 3.2 (Agilent Technologies Inc.) was used for data acquisition and processing. […] The column temperature was maintained at 50 °C. The mobile phase consisted of a mixture of acetonitrile and water (67:33, v/v), and pumped at a flow rate of 1 mL/min.
# Pharmacokinetic data analysis. Plasma and tissue concentration versus time profiles were analyzed by the non-compartmental approach in Phoenix WinNonlin v. 6.3 software (Pharsight Corporation, Mountain View, CA, USA). The peak concentration (Cmax) and the time to reach Cmax (tmax) were obtained directly from individual concentration–time profiles. The initial concentration (C0) after an iv dosing was obtained by extrapolation to zero time. The linear trapezoidal rule was applied to calculate the areas under the concentration–time curve (AUC) from the time of dosing to the last measured data point (AUC0-t) or infinity (AUC0-∞). The terminal slope (λz) was estimated by linear regression and the terminal half-life (t0.5λz) was calculated as ln2/λz. The volume of distribution based on the terminal phase (Vz) was calculated as: Dose/(λz ∙ AUC0-∞), whereas clearance (CL) was obtained from the following equation: Dose/AUC0-∞. The mean residence time (MRT) was defined as: AUMC0-∞/AUC0-∞, where AUMC is the area under the first moment curve. The absolute bioavailability (Fa) was calculated according to the equation: (AUCpo./Dosepo)/(AUCiv/Doseiv).
# hNav1.3 sodium channel = target: T6, hNav1.3 sodium channel (Homo sapiens, UniProt Q9NY46); assay: Nav channel electrophysiology (IonWorks Quattro); assay type: cell-based
# T6 construct: host or cells: CHO cells
# [1] = target: T7, hNav1.8/beta3 sodium channel (Homo sapiens, UniProt Q9Y5Y9); assay: Nav channel electrophysiology (IonWorks Quattro); assay type: cell-based
# T7 construct: host or cells: CHO cells
# α1 (non-selective) = assay: Radioligand binding; parameters: species or system rat
# Method: Radioligand binding. Radioligand binding assays were performed at Eurofins CEREP (France). The results are expressed as a percent of control specific binding (measured specific binding*100/control specific binding) and as a percent inhibition of control specific binding (100-(measured specific binding*100)/control specific binding) obtained in the presence of the test compounds. The IC50 values (concentration causing a half-maximal inhibition of control specific binding) and Hill coefficients (nH) were determined by non-linear regression analysis of the competition curves generated with mean replicate values using Hill equation curve fitting (Y = D + [A-D]/[1 + (C/C50)^nH], where Y = specific binding, A = left asymptote of the curve, D = right asymptote of the curve, C = compound concentration, C50 = IC50, and nH = slope factor). This analysis was performed using software developed at Cerep (Hill software) and validated by comparison with data generated by the commercial software SigmaPlot® 4.0 for Windows® (© 1997 by SPSS Inc.). The inhibition constants (Ki) were calculated using the Cheng Prusoff equation (Ki = IC50/[1 + L/KD], where L = concentration of radioligand in the assay, and KD = affinity of the radioligand for the receptor). A scatchard plot is used to determine the Kd.
# 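For Cmax in this document: organ homogenates in PBS analysed by HPLC after FMOC-Cl derivatization, non-compartmental analysis, Kp as tissue over plasma AUC, half-life taken as ln2 divided by λz.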
# 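For concentration in rat brain (approximated) in this document: organ homogenates in PBS analysed by HPLC after FMOC-Cl derivatization, non-compartmental analysis, Kp as tissue over plasma AUC, half-life taken as ln2 divided by λz.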
# 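For concentration in rat brain in this document: organ homogenates in PBS analysed by HPLC after FMOC-Cl derivatization, non-compartmental analysis, Kp as tissue over plasma AUC, half-life taken as ln2 divided by λz.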
# 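For t0.5λz in this document: organ homogenates in PBS analysed by HPLC after FMOC-Cl derivatization, non-compartmental analysis, Kp as tissue over plasma AUC, half-life taken as ln2 divided by λz.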
# T7 sequence (Q9Y5Y9 whole entry): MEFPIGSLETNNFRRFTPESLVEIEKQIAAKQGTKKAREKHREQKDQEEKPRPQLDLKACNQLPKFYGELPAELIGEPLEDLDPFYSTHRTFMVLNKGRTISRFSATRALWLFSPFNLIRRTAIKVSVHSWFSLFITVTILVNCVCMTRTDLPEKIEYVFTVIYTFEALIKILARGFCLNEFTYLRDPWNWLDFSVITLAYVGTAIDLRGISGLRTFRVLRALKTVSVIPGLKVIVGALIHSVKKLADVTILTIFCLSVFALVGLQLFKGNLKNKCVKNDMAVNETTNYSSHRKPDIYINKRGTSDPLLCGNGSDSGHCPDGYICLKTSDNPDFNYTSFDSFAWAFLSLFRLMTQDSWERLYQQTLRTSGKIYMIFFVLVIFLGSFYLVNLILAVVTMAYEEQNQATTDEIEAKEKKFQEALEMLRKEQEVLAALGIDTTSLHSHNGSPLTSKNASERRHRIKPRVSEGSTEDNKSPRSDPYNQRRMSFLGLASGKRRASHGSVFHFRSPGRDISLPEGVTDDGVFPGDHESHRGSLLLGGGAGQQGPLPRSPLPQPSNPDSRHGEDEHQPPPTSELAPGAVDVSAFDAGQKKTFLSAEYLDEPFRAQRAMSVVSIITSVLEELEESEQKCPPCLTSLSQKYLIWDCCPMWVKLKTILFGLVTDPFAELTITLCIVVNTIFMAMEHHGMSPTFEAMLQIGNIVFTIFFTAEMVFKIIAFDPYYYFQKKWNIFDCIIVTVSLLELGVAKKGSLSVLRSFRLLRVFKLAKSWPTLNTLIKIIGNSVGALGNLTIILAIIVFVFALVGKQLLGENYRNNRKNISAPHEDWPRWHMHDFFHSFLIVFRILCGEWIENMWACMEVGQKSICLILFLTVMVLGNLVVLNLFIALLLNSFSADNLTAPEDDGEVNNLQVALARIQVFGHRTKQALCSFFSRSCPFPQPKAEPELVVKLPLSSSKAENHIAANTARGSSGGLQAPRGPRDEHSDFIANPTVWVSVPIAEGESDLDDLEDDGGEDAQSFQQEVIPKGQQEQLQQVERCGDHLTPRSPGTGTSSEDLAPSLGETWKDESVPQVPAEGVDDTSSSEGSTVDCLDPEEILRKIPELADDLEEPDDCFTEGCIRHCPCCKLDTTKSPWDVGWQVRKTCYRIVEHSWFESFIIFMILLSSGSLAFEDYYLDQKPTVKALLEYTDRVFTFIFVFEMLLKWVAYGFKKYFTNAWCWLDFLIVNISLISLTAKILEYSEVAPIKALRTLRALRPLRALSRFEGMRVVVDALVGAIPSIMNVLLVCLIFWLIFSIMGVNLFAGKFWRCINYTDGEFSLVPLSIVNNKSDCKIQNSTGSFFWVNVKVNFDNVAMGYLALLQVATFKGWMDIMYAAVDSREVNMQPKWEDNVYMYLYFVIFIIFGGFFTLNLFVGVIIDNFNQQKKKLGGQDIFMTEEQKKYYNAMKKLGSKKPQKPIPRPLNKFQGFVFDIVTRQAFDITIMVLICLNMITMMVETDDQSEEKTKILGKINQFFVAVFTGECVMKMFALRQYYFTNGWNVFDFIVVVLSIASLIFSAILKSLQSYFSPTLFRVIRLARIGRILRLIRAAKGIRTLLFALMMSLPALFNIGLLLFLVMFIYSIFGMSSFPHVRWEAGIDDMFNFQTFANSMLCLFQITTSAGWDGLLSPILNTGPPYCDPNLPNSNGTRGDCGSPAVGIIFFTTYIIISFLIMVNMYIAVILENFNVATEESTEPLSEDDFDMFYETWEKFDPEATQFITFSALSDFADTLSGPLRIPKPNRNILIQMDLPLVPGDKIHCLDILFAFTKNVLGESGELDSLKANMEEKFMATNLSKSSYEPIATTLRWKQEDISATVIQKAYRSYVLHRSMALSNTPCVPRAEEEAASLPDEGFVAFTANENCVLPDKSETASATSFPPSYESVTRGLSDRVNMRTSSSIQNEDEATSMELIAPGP
# T7 sequence (Q9NY72 25-215 partner limits assumed): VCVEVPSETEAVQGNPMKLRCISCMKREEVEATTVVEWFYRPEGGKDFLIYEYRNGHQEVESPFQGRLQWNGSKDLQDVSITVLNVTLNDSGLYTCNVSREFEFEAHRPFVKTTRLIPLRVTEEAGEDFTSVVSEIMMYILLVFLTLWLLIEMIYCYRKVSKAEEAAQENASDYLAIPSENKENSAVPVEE
# T6 sequence (Q9NY46 whole entry): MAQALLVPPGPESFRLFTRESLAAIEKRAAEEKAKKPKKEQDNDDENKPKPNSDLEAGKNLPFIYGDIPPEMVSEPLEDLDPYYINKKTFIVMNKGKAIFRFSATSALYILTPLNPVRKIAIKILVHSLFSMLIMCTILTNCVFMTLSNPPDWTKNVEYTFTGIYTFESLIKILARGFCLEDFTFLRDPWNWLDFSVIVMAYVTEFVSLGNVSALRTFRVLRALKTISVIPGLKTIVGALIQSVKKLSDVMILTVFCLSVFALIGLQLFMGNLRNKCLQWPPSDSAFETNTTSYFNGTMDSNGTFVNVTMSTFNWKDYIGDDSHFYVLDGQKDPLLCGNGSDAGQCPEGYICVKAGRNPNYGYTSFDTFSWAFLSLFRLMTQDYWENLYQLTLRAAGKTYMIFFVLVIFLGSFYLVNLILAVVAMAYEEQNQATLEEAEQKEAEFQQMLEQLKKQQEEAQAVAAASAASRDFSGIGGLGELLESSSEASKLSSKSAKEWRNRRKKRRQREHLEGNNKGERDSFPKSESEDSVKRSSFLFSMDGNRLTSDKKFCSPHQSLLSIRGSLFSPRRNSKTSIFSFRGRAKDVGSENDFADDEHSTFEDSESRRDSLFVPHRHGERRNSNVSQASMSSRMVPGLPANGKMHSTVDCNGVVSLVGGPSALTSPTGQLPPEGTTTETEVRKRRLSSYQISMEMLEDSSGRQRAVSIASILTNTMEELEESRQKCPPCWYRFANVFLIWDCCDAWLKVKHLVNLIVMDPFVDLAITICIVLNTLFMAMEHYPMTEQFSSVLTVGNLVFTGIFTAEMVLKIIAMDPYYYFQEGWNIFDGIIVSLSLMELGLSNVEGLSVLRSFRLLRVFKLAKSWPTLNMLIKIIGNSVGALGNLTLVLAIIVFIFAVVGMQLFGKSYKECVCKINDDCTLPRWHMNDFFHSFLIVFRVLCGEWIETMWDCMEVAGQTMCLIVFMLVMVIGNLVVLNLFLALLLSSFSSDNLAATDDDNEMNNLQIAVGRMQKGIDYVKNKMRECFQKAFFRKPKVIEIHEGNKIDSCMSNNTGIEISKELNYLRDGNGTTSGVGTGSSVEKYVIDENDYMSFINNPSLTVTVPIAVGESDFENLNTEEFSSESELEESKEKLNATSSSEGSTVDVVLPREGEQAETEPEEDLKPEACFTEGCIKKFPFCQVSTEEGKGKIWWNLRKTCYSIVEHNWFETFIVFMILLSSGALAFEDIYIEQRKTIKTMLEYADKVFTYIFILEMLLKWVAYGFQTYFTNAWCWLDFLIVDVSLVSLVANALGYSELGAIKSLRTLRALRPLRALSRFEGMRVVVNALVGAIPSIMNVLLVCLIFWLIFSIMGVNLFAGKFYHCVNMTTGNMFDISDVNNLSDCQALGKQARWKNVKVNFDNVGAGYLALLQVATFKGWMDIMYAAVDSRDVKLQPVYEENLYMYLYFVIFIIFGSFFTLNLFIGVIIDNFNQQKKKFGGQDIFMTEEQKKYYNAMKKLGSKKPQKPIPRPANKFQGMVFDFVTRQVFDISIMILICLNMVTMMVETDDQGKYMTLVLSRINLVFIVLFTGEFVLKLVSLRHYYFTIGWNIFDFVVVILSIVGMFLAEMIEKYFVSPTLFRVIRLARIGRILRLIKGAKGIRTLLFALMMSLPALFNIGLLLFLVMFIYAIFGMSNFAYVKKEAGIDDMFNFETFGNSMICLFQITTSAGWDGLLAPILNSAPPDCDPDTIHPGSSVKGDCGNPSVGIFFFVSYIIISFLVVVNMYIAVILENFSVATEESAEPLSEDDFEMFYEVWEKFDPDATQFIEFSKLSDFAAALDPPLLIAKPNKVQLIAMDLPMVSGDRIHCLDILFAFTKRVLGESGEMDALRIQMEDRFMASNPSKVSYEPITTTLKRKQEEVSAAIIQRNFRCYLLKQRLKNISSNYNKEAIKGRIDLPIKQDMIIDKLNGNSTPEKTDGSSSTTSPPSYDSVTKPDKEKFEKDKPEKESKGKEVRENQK
# T5 sequence (P33261 whole entry): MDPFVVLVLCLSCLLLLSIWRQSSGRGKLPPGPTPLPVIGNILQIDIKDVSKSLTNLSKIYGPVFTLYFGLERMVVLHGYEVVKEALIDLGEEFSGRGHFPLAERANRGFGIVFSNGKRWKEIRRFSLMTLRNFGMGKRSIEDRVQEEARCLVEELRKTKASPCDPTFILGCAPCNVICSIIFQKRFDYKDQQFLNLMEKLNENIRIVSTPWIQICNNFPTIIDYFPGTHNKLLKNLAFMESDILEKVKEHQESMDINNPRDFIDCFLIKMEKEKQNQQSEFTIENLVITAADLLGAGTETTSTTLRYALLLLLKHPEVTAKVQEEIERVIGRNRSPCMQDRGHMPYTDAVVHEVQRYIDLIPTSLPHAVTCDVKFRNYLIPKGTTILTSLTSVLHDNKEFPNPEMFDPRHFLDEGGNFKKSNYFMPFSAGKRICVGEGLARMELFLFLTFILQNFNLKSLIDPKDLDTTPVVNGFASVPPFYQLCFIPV
# T1 sequence (P20813 whole entry): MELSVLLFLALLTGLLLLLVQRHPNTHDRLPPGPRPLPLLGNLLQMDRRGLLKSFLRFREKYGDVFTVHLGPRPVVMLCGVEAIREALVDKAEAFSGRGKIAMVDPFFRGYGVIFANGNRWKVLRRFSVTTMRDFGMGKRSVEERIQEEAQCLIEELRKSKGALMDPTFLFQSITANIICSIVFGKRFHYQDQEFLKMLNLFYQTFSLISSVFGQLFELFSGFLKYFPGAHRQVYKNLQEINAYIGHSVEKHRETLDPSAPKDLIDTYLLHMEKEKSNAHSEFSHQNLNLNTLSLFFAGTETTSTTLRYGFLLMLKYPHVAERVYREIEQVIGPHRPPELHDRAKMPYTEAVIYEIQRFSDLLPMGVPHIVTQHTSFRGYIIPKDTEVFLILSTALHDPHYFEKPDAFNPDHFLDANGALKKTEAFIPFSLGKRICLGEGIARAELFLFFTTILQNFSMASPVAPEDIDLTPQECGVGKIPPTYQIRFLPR
compound,measurement,setting,value
"CCC(CO)NCCOc1c(C)cccc1Cl (stereo not shown) [Compound 4, R,S-2-((2-(2-chloro-6-methylphenoxy)ethyl)amino)butan-1-ol]",Inhibition type,CYP2B6,Weak inhibition
same,% inhibition of 500 µM concentration,"CYP2B6; 500 µM, substrate at 25 µM",69 (substrate at 25 µM) %
same,Inhibition type,CYP3A4,Weak inhibition
same,% inhibition of 500 µM concentration,"CYP3A4; 500 µM, substrate at 200.0 µM",52 (substrate at 200.0 µM) %
same,Inhibition type,CYP2A6,Mixed/competitive
same,Ki,CYP2A6,371 µM
same,% inhibition of 500 µM concentration,"CYP2A6; 500 µM, substrate at 10 µM",44 (substrate at 10 µM) %
same,Inhibition type,CYP1A2,Mixed/competitive
same,Ki,CYP1A2,23 µM
same,% inhibition of 500 µM concentration,"CYP1A2; 500 µM, substrate at 2 µM",65 (substrate at 2 µM) %
same,Inhibition type,CYP2C19,Mixed/competitive
same,Ki,CYP2C19,54 µM
same,% inhibition of 500 µM concentration,"CYP2C19; 500 µM, substrate at […]",80 (substrate at 150.0 µM) %
"CCC(CO)NCCOc1c(C)cccc1Cl (stereo not shown) [KM-408, R,S-2-((2-(2-chloro-6-methylphenoxy)ethyl)amino)butan-1-ol hydrochloride]",t0.5λz,Tissue distribution; Brain,28.56 min
same,t0.5λz,Tissue distribution; Heart,41.30 min
same,t0.5λz,Tissue distribution; Kidneys,16.23 min
same,t0.5λz,Tissue distribution; Liver,41.99 min
same,t0.5λz,Tissue distribution; Lungs,30.84 min
same,concentration in rat brain (approximated),"Tissue distribution; 2 h after iv, tissue density 1 g/mL assumed",~2.2*10^–7 M
same,concentration at 2 h,"Tissue distribution; male, Wistar, rat, brain, 5 mg/kg, 2 h after iv administration",64.9 ng/g
same,Cmax,"Tissue distribution; male, Wistar, rat, Brain",1770 ng/g
same,MRT,"Tissue distribution; male, Wistar, rat, Brain",37.9 min
same,Tmax,"Tissue distribution; male, Wistar, rat, Brain",5 min
same,Kp,"Tissue distribution; male, Wistar, rat, Brain",0.83
same,k el,"Tissue distribution; male, Wistar, rat, Brain",0.0004 s⁻¹
same,Cmax,"Tissue distribution; male, Wistar, rat, Heart",494 ng/g
same,MRT,"Tissue distribution; male, Wistar, rat, Heart",58.5 min
same,Tmax,"Tissue distribution; male, Wistar, rat, Heart",15 min
same,Kp,"Tissue distribution; male, Wistar, rat, Heart",0.38
same,k el,"Tissue distribution; male, Wistar, rat, Heart",0.000283 s⁻¹
same,Cmax,"Tissue distribution; male, Wistar, rat, Kidneys",1950 ng/g
same,MRT,"Tissue distribution; male, Wistar, rat, Kidneys",25.3 min
same,Tmax,"Tissue distribution; male, Wistar, rat, Kidneys",5 min
same,Kp,"Tissue distribution; male, Wistar, rat, Kidneys",0.62
same,k el,"Tissue distribution; male, Wistar, rat, Kidneys",0.000717 s⁻¹
same,Cmax,"Tissue distribution; male, Wistar, rat, Liver",161 ng/g
same,MRT,"Tissue distribution; male, Wistar, rat, Liver",113 min
same,Tmax,"Tissue distribution; male, Wistar, rat, Liver",5 min
same,Kp,"Tissue distribution; male, Wistar, rat, Liver",0.14
same,k el,"Tissue distribution; male, Wistar, rat, Liver",0.000283 s⁻¹
same,Cmax,"Tissue distribution; male, Wistar, rat, Lungs",4350 ng/g
same,MRT,"Tissue distribution; male, Wistar, rat, Lungs",46.9 min
same,Tmax,"Tissue distribution; male, Wistar, rat, Lungs",5 min
same,Kp,"Tissue distribution; male, Wistar, rat, Lungs",1.76
same,k el,"Tissue distribution; male, Wistar, rat, Lungs",0.000383 s⁻¹
same,IC50,hNav1.3 sodium channel; 10 Hz,13.1 µM
same,IC50,hNav1.3 sodium channel; Inactivated state,< 10 µM
same,IC50,hNav1.3 sodium channel; Tonic block,49.2 µM
same,IC50,[1]; 10 Hz,15.2 µM
same,IC50,[1]; Inactivated state,< 10 µM
same,IC50,[1]; Tonic block,44.1 µM
same,IC50,α1 (non-selective),12 µM
same,Ki,α1 (non-selective),3.3 µM
same,% of control specific binding,α1 (non-selective); 0.01 μM,102.4%
same,% of control specific binding,α1 (non-selective); 0.1 μM,97.3%
same,% of control specific binding,α1 (non-selective); 1 μM,90.0%
same,% of control specific binding,α1 (non-selective); 10 μM,55.9%
same,% of control specific binding,α1 (non-selective); 100 μM,12.8%
